# Assay results: patent US20250361230A1, “LATS Inhibitors and Uses Thereof” (The USA, as Represented by the Secretary, Dept. of Heath …, priority 2022, published 2025)
# Like-named read-outs stand apart in the source and are kept apart here.
# Biological target: T1, AKT Kinase-NanoLuc fusion in HEK-293 cells (Homo sapiens, UniProt P31749)
# T1 construct: host or cells: HEK-293
# Test: NanoBRET target engagement assay in transfected HEK-293 cells, AKT
# Type: cell-based
# Text: The NanoBRET™ assay measures kinase engagement in real time in the context of the intact cell. The assay uses a Kinase-NanoLuc® fusion vector expressing a kinase protein to which a luciferase tag has been added, a cell-permeant fluorescent NanoBRET™ tracer, a NanoLuc® substrate, and an extracellular NanoLuc® inhibitor. Upon expression of the luciferase-tagged kinase, cells will produce a strong BRET signal only in the presence of the NanoBRET™ tracer. The extracellular NanoLuc® inhibitor ensures that the BRET signal observed emanates only from live cells. Because the BRET signal has tight distance constraints, addition of the test compound will decrease the BRET signal if the compound competes with the NanoBRET™ tracer for binding to the kinase domain. Under the appropriate tracer conditions established by the manufacturer, quantitative intracellular affinity and relative potency can then be determined using Mass Action model equations.
# HEK-293 cells were purchased from ATCC. FuGENEHD Transfection Reagent, Kinase-NanoLuc® fusion plasmids, Transfection Carrier DNA, NanoBRET™ Tracers and dilution buffer, NanoBRET™ Nano-Glo Substrate, Extracellular NanoLuc® Inhibitor were obtained from Promega.
# Assays were conducted following Promega assay protocol with some modifications as described further below. HEK-293 Cells were transiently transfected with Kinase-NanoLuc® Fusion Vector DNA by FuGENE HD Transfection Reagent. Test compounds were delivered into 384 well assay plate by Echo 550 (Labcyte Inc, Sunnyvale, CA). Transfected cells were harvested and mixed with NanoBRET™ Tracer Reagent and dispensed into 384 well plates and incubated at 37° C. in 5% CO2 cell culture incubator for 1 hour. The NanoBRET™ Nano-Glo Substrate plus Extracellular NanoLuc® Inhibitor Solution were added into the wells of the assay plate and incubated for 2-3 minutes at room temperature. The donor emission wavelength (460 nm) and acceptor emission wavelength (600 nm) were measured in the EnVision plate reader. The BRET Ratios were calculated. BRET Ratio=[(Acceptor sample÷Donor sample)−(Acceptor no-tracer control÷Donor no-tracer control)]. The IC50 values of compounds were calculated with Prism GraphPad program.
# • 1. Transient Transfection of HEK-293 Cells NanoLuc® Fusion Vector DNA • 1). Cultivate HEK-293 cells (70-80% confluence) appropriately prior to assay. Trypsinize and collect HEK-293 cells. • 2). Prepare lipid: DNA complexes as follows: • a. Prepare a […] solution of DNA in Opti-MEM™ without serum that consists of the following ratios of carrier DNA and DNA encoding NanoLuc® fusion. 9.0 µg/mL of Transfection Carrier DNA, […] of NanoLuc® fusion vector DNA and 1 mL of Opti-MEM™ without phenol red. Mix thoroughly. • b. Add 30 μl of FuGENE HD Transfection Reagent into each milliliter of DNA mixture to form lipid: DNA complex. • c. Mix by inversion 10 times. • d. Incubate at ambient temperature for 20 minutes to allow complexes to form. • 3). In a sterile, conical tube, mix 1 part of lipid: DNA complex with 20 parts of HEK-293 cells in suspension. Mix gently by inversion 5 times. • 4). Dispense cells+lipid: DNA complex into a sterile tissue culture dish and incubate for 22-24 hours. • 2. Addition of Test Compounds (dry plate shooting): Each test compound is delivered from the compound source plate to the wells of 384-well white NBS plate by Echo 550. • 3. Preparation of Cells with NanoBRET™ Tracer Reagent • 1). Remove medium from dish with transfected HEK-293 cells via aspiration, trypsinize and allow cells to dissociate from the dish. • 2). Neutralize trypsin using medium containing serum and centrifuge at 200× g for 5 minutes to pellet the cells. Adjust the cell density to 2×10^5 cells/mL in Opti-MEM™ without phenol red. • 3). Prepare Complete 20× NanoBRET™ Tracer Reagent with Tracer Dilution Buffer. • 4). Dispense one part of Complete 20× NanoBRET™ Tracer Reagent to 20 parts of cells in the tube. Mix gently by inversion 10 times. • 5). […]
# [1] = Table 28, NanoBRET, HEK-293 cells, read-out: AKT1 (Cellular) IC50
# [2] = Table 32, NanoBRET, HEK-293 cells, read-out: AKT (Cellular) IC50
# [3] = cellular, read-out: AKT (Cellular) IC50
# T1 sequence (P31749 whole entry, the tested form may be a part): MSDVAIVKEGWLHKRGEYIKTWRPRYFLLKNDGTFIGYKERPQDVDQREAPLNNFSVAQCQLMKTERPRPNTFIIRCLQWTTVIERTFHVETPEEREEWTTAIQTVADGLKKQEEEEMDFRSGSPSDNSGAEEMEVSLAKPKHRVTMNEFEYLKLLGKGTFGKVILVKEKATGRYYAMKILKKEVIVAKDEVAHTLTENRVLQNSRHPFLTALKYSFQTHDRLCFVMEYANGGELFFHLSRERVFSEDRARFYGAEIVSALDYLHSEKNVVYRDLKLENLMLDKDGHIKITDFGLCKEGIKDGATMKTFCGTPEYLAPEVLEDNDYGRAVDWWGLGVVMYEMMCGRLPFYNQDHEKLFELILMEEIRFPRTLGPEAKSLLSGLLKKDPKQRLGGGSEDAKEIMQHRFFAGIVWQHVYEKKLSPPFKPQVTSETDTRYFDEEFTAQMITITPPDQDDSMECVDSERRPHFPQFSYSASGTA
IC50 [2],IC50 [3],Compound,other results
–,51.7 µM,"Cc1cc(-c2ccnc3[nH]cc(C#N)c23)cc(F)c1[C@@]1(O)[C@H](C)CN(C(=O)CN)C[C@@H]1C [Compound 2004, 4-(3-fluoro-4-((3S,4s,5R)-1-glycyl-4-hydroxy-3,5-dimethylpiperidin-4-yl)-5-methylphenyl)-1H-pyrrolo[2,3-b]pyridine-3-carbonitrile]",–
–,56.8 µM,"Cc1cc(-c2ccnc3[nH]cc(C#N)c23)ccc1[C@@]1(O)[C@H](C)CN(C(=O)CN)C[C@@H]1C [Compound 2005, 4-(4-((3S,4s,5R)-1-glycyl-4-hydroxy-3,5-dimethylpiperidin-4-yl)-3-methylphenyl)-1H-pyrrolo[2,3-b]pyridine-3-carbonitrile]",–
–,> 50 µM,"Cc1cc(-c2ccnc3[nH]cc(C#N)c23)cc(F)c1[C@@]1(O)[C@H](C)CN(C(=O)[C@H](N)CO)C[C@@H]1C [Compound 2007, 4-(4-((3S,4S,5R)-1-(D-seryl)-4-hydroxy-3,5-dimethylpiperidin-4-yl)-3-fluoro-5-methylphenyl)-1H-pyrrolo[2,3-b]pyridine-3-carbonitrile]",–
–,> 50 µM,"Cc1cc(-c2ccnc3[nH]cc(C#N)c23)cc(F)c1[C@@]1(O)[C@H](C)CN(C(=O)[C@](C)(N)CO)C[C@@H]1C [Compound 2008, 4-(4-((3S,4s,5R)-1-(2-amino-3-hydroxy-2-methylpropanoyl)-4-hydroxy-3,5-dimethylpiperidin-4-yl)-3-fluoro-5-methylphenyl)-1H-pyrrolo[2,3-b]pyridine-3-carbonitrile]",–
–,> 50 µM,"Cc1cc(-c2ccnc3[nH]cc(C#N)c23)cc(F)c1[C@@]1(O)[C@H](C)CN(C(=O)[C@H](C)N)C[C@@H]1C [Compound 2011, 4-(4-((3S,4R,5R)-1-(L-alanyl)-4-hydroxy-3,5-dimethylpiperidin-4-yl)-3-fluoro-5-methylphenyl)-1H-pyrrolo[2,3-b]pyridine-3-carbonitrile]",–
–,> 50 µM,"CNCC(=O)N1C[C@@H](C)[C@](O)(c2c(C)cc(-c3ccnc4[nH]cc(C#N)c34)cc2F)[C@@H](C)C1 [Compound 2012, 4-(3-fluoro-4-((3S,4s,5R)-4-hydroxy-3,5-dimethyl-1-(methylglycyl)piperidin-4-yl)-5-methylphenyl)-1H-pyrrolo[2,3-b]pyridine-3-carbonitrile]",–
–,> 50 µM,"Cc1cc(-c2ccnc3[nH]cc(C#N)c23)cc(F)c1[C@@]1(O)[C@H](C)CN(C(=O)CNCC(F)(F)F)C[C@@H]1C [Compound 2014, 4-(3-fluoro-4-((3S,4s,5R)-4-hydroxy-3,5-dimethyl-1-((2,2,2-trifluoroethyl)glycyl)piperidin-4-yl)-5-methylphenyl)-1H-pyrrolo[2,3-b]pyridine-3-carbonitrile]",–
–,> 50 µM,"Cc1cc(-c2ccnc3[nH]cc(C#N)c23)cc(F)c1[C@@]1(O)[C@H](C)CN(C(=O)[C@@H](C)N)C[C@@H]1C [Compound 2015, 4-(4-((3S,4S,5R)-1-(D-alanyl)-4-hydroxy-3,5-dimethylpiperidin-4-yl)-3-fluoro-5-methylphenyl)-1H-pyrrolo[2,3-b]pyridine-3-carbonitrile]",–

# More lines, now with the values behind:
Compound,IC50 [2],IC50 [3],other results
"Cc1cc(-c2ccnc3[nH]cc(F)c23)cc(F)c1[C@@]1(O)[C@H](C)CN(C(=O)[C@H](N)CO)C[C@@H]1C [Compound 312, (R)-2-amino-1-((3S,4R,5R)-4-(2-fluoro-4-(3-fluoro-1H-pyrrolo[2,3-b]pyridin-4-yl)-6-methylphenyl)-4-hydroxy-3,5-dimethylpiperidin-1-yl)-3-hydroxypropan-1-one]",–,–,IC50 [1]: 12.8 µM
"Cc1cc(-c2ccnc3[nH]cc(F)c23)cc(F)c1[C@@]1(O)[C@H](C)CN(C(=O)[C@@H](CO)N(C)C)C[C@@H]1C [Compound 313, (R)-2-(dimethylamino)-1-((3S,4S,5R)-4-(2-fluoro-4-(3-fluoro-1H-pyrrolo[2,3-b]pyridin-4-yl)-6-methylphenyl)-4-hydroxy-3,5-dimethylpiperidin-1-yl)-3-hydroxypropan-1-one]",–,–,IC50 [1]: 19.2 µM
"OC1(c2ccc(-c3ccnc4[nH]cc(F)c34)cc2)CC2(CNC2)C1 [Compound 319, 6-(4-(3-fluoro-1H-pyrrolo[2,3-b]pyridin-4-yl)phenyl)-2-azaspiro[3.3]heptan-6-ol]",–,–,IC50 [1]: 44.8 µM
"NCC(O)(c1ccc(Cl)cc1)c1ccc(-c2ccnc3[nH]ccc23)cc1 (stereo not drawn) [Compound 1001, 1-(4-(1H-pyrrolo[2,3-b]pyridin-4-yl)phenyl)-2-amino-1-(4-chlorophenyl)ethan-1-ol]",0.042 µM,–,–
"NCC(O)(c1ccc(Cl)cc1)c1ccc(-c2ccnc3[nH]cc(F)c23)cc1 (stereo not drawn) [Compound 1002, 2-amino-1-(4-chlorophenyl)-1-(4-(3-fluoro-1H-pyrrolo[2,3-b]pyridin-4-yl)phenyl)ethan-1-ol]",0.027 µM,–,–
"COC(=O)c1c[nH]c2nccc(-c3ccc(C(O)(CN)c4ccc(Cl)cc4)cc3)c12 (stereo not drawn) [Compound 1004, Methyl 4-(4-(2-amino-1-(4-chlorophenyl)-1-hydroxyethyl)phenyl)-1H-pyrrolo[2,3-b]pyridine-3-carboxylate]",0.548 µM,–,–
"NCC(O)(c1ccc(Cl)cc1)c1ccc(-c2ccnc3[nH]cc(Br)c23)cc1 (stereo not drawn) [Compound 1005, 2-amino-1-(4-(3-bromo-1H-pyrrolo[2,3-b]pyridin-4-yl)phenyl)-1-(4-chlorophenyl)ethan-1-ol]",0.0029 µM,–,–
"NCC(O)(c1ccc(Cl)cc1)c1ccc(-c2ccnc3[nH]cc(-c4ccccc4)c23)cc1 (stereo not drawn) [Compound 1006, 2-amino-1-(4-chlorophenyl)-1-(4-(3-phenyl-1H-pyrrolo[2,3-b]pyridin-4-yl)phenyl)ethan-1-ol]",0.135 µM,–,–
"NCC(O)(c1ccc(Cl)cc1)c1ccc(-c2ccnc3[nH]cc(-c4cccnc4)c23)cc1 (stereo not drawn) [Compound 1007, 2-amino-1-(4-chlorophenyl)-1-(4-(3-(pyridin-3-yl)-1H-pyrrolo[2,3-b]pyridin-4-yl)phenyl)ethan-1-ol]",0.153 µM,–,–
"NCC(O)(c1ccc(Cl)cc1)c1ccc(-c2ccnc3[nH]cc(Br)c23)nc1 (stereo not drawn) [Compound 1011, 2-amino-1-(6-(3-bromo-1H-pyrrolo[2,3-b]pyridin-4-yl)pyridin-3-yl)-1-(4-chlorophenyl)ethan-1-ol]",0.0763 µM,–,–
"NCC(=O)NCC(O)(c1ccc(Cl)cc1)c1ccc(-c2ccnc3[nH]cc(Cl)c23)cc1 (stereo not drawn) [Compound 1021, 2-amino-N-(2-(4-(3-chloro-1H-pyrrolo[2,3-b]pyridin-4-yl)phenyl)-2-(4-chlorophenyl)-2-hydroxyethyl) acetamide]",0.012 µM,–,–
"Cc1cc(-c2ccnc3[nH]cc(C#N)c23)cc(F)c1[C@@]1(O)[C@H](C)CN(C2CCS(=O)(=O)CC2)C[C@@H]1C [Compound 2002, 4-(4-((3S,4s,5R)-1-(1,1-dioxidotetrahydro-2H-thiopyran-4-yl)-4-hydroxy-3,5-dimethylpiperidin-4-yl)-3-fluoro-5-methylphenyl)-1H-pyrrolo[2,3-b]pyridine-3-carbonitrile]",–,57.9 µM,–
"Cc1cc(-c2ccnc3[nH]cc(C#N)c23)cc(F)c1[C@@]1(O)[C@H](C)CN(C(=O)C(N)C(F)(F)F)C[C@@H]1C (stereo partly drawn) [Compound 2017, 4-(4-((3S,4s,5R)-1-(2-amino-3,3,3-trifluoropropanoyl)-4-hydroxy-3,5-dimethylpiperidin-4-yl)-3-fluoro-5-methylphenyl)-1H-pyrrolo[2,3-b]pyridine-3-carbonitrile]",–,> 50 µM,–
